# Source: patent US12661382B2, “Method for obtaining oleocanthal type secoiridoids and for producing respective pharmaceutical preparations” (OMPHAX SA, priority 2019, dated 2026)
# Test: water solubility
# Type: physicochemical
row,Substance,water solubility with respect to substances (1-6)
1,5S-(E)-oleomissionadiol [Substance 9],greatly increased water solubility
2,oleuropeinediol [Substance 11],greatly increased water solubility
3,S-(E)-oleaceinediol [Substance 8],greatly increased water solubility

# Results, then the substance that gave them:
row,water solubility with respect to substances (1-6),Substance
1,greatly increased water solubility,ligstrodiol [Substance 12]
2,greatly increased water solubility,S-(E)-oleocanthadiol [Substance 7]
3,greatly increased water solubility,5S-(E)-oleokoronadiol [Substance 10]
